Some test systems named below: ACHN renal; COLO 205 colon; HCT-15 colon; M14 melanoma; MALME-3M melanoma; MOLT-4 leukemia; RPMI-8226 leukemia; SW-620 colon; T-47D breast; U251 CNS.
Common to all, as to test: NCI tumour cell line growth inhibition, 48 h

Several values for one entry are separate records, joined by “and”; a condition that tells them apart may be missing. Equal entries are not always repeated.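 Five compound concentrations were applied to cells in 96-well plates for 48 hours; endpoints were derived by simple linear interpolation of the resulting dose-response curve. Here, GI50 denotes the concentration required for 50% inhibition of growth. TGI: total growth inhibition.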

Take `CN1C(=O)C(C)(C)Oc2c(-c3cn(C)c(=O)c4[nH]ccc34)cc(S(C)(=O)=O)cc21`: the GI50 was 1.39 µM in the experiment on ACHN renal; 0.469 µM with COLO 205 colon; 2.58 µM with HCT-15 colon; 0.727 µM with M14 melanoma; 1.1 µM with MALME-3M melanoma; 1.42 µM with MOLT-4 leukemia. The GI50 with RPMI-8226 leukemia is 0.243 µM; in the experiment on SW-620 colon, 2.15 µM; in the experiment with T-47D breast, 0.808 µM; in the experiment on U251 CNS, 1.52 µM. In addition, the TGI with ACHN renal was > 100 µM; with COLO 205 colon, 10.5 µM; in the experiment with HCT-15 colon it was 39.2 µM; in the experiment on M14 melanoma, > 100 µM; in the experiment with MALME-3M melanoma, 25.8 µM; with MOLT-4 leukemia, > 100 µM. The TGI in the experiment on RPMI-8226 leukemia is 4.94 µM; in the experiment on SW-620 colon, 19.2 µM; in the experiment on T-47D breast, > 100 µM; in the experiment with U251 CNS, > 100 µM.

Turning to `Cn1c(=O)c2[nH]cnc2n(C)c1=O.[CH2-]C(Cc1cccc2cc(C(=O)O)c(=O)oc12)OC.[Hg+2].[OH-]` (stereo not given), the GI50 with ACHN renal was 16.3 µM; in the experiment on COLO 205 colon it was 17.1 µM; in the experiment on HCT-15 colon, 16.6 µM; with M14 melanoma, 16.9 µM; with MALME-3M melanoma it was 8.67 µM; with MOLT-4 leukemia, 8.81 µM. The GI50 is 18.2 µM with RPMI-8226 leukemia, 10.8 µM with SW-620 colon, 18.9 µM with T-47D breast and 16.3 µM in the experiment on U251 CNS. In addition, the TGI in the experiment on ACHN renal was found to be 29.9 µM; in the experiment with COLO 205 colon, 30.9 µM; in the experiment with HCT-15 colon it was 30.9 µM; in the experiment with M14 melanoma, 30.7 µM; with MALME-3M melanoma it was 20.4 µM; in the experiment on MOLT-4 leukemia it was 40.5 µM. Further, the TGI in the experiment with RPMI-8226 leukemia came out at 65.1 µM; with SW-620 colon, 28.7 µM; in the experiment on T-47D breast it was 63.5 µM; in the experiment on U251 CNS, 29.8 µM.

For `C=CC(=O)Nc1cccc(Nc2nc(Nc3ccc(N4CCN(C(C)=O)CC4)cc3OC)ncc2C(F)(F)F)c1`, the GI50 in the experiment with ACHN renal is 2.96 µM and 1.84 µM; in the experiment on COLO 205 colon it was 1.86 µM and 1.78 µM; in the experiment on HCT-15 colon, 3.06 µM and 2.94 µM; in the experiment with M14 melanoma, 3.67 µM and 2.73 µM; in the experiment with MALME-3M melanoma it was 8.88 µM and 3.09 µM; in the experiment on MOLT-4 leukemia, 5.47 µM and 4.04 µM. The GI50 with RPMI-8226 leukemia was 4.17 µM and 3.43 µM; with SW-620 colon it was 3.07 µM and 2.29 µM; in the experiment on T-47D breast it was 1.88 µM and 3.92 µM; in the experiment with U251 CNS, 4.75 µM and 4.08 µM. The TGI in the experiment on ACHN renal was > 30.3 µM; in the experiment with COLO 205 colon it was 4.71 µM and 5.75 µM; in the experiment with HCT-15 colon it was > 10 µM and 13.8 µM; in the experiment on M14 melanoma, > 100 µM; with MALME-3M melanoma it was > 10 µM and 16.4 µM; with MOLT-4 leukemia, > 58.5 µM. Moreover, the TGI in the experiment on RPMI-8226 leukemia is > 10 µM and 25.6 µM; with SW-620 colon it was > 10 µM and 12.7 µM; with T-47D breast it was > 10 µM and 49.3 µM; in the experiment with U251 CNS it was > 100 µM.

For `C=C1C(OCCO)OC2O[C@]3(C)CCC4[C@H](C)CCC1C24OO3` (stereo not given in full), the GI50 with ACHN renal is 31.4 µM; in the experiment with COLO 205 colon, 2.87 µM; in the experiment with HCT-15 colon, 3.88 µM; with M14 melanoma it was 78.4 µM; in the experiment on MALME-3M melanoma, 52.7 µM; in the experiment on MOLT-4 leukemia, 1.96 µM. Moreover, the GI50 is 0.591 µM in the experiment with RPMI-8226 leukemia, 10.9 µM in the experiment on SW-620 colon, 1.56 µM in the experiment with T-47D breast and 35 µM in the experiment on U251 CNS. Also, the TGI in the experiment on ACHN renal is > 100 µM; with COLO 205 colon it was 14.3 µM; in the experiment with HCT-15 colon it was > 100 µM; in the experiment with M14 melanoma, > 100 µM; in the experiment on MALME-3M melanoma, > 100 µM; in the experiment with MOLT-4 leukemia it was 27.9 µM. The TGI in the experiment on RPMI-8226 leukemia is 16.5 µM; in the experiment with SW-620 colon, > 100 µM; in the experiment with T-47D breast, > 100 µM; with U251 CNS it was > 100 µM.

Take `COC(=O)[C@]1(C)CC[C@]2(C)CC[C@]3(C)C(=CC(=O)[C@@H]4[C@@]5(C)CCC(=O)NC(C)(C)[C@@H]5CC[C@]43C)[C@@H]2C1`: the GI50 in the experiment on ACHN renal is 24 µM; with COLO 205 colon, 17.1 µM; in the experiment on HCT-15 colon, 16.1 µM; in the experiment with M14 melanoma it was 19.3 µM; in the experiment on MALME-3M melanoma, 18.3 µM; in the experiment with MOLT-4 leukemia, 10.5 µM. Also, the GI50 with RPMI-8226 leukemia was 12 µM; in the experiment with SW-620 colon, 27.3 µM; with T-47D breast, 9.97 µM; with U251 CNS it was 23.3 µM. The TGI with ACHN renal was 89.4 µM; in the experiment on COLO 205 colon, 50.4 µM; in the experiment on HCT-15 colon, > 100 µM; in the experiment with M14 melanoma, 44.4 µM; in the experiment with MALME-3M melanoma it was 38 µM; in the experiment on MOLT-4 leukemia, 31.6 µM. In addition, the TGI was 34.7 µM in the experiment on RPMI-8226 leukemia, > 100 µM in the experiment with SW-620 colon, > 100 µM with T-47D breast and 89.3 µM in the experiment on U251 CNS.

On to `Nc1cc(N)c2nc(-c3ccccc3)c(Oc3ccc(Cl)c(Cl)c3)nc2c1`, for which the GI50 in the experiment on COLO 205 colon is 20.6 µM; with HCT-15 colon it was 20 µM; with M14 melanoma, 14.1 µM; with MALME-3M melanoma it was 15.8 µM; in the experiment with MOLT-4 leukemia, 6.28 µM; with RPMI-8226 leukemia, 3.51 µM. Also, the GI50 is 9.69 µM with SW-620 colon, 24.5 µM in the experiment on T-47D breast and 12.1 µM in the experiment on U251 CNS. Moreover, the TGI is 67.8 µM in the experiment with COLO 205 colon; > 100 µM in the experiment on HCT-15 colon; 70.3 µM in the experiment on M14 melanoma; 37.4 µM in the experiment with MALME-3M melanoma; > 100 µM in the experiment with MOLT-4 leukemia; > 100 µM with RPMI-8226 leukemia. In addition, the results for the TGI with SW-620 colon, with T-47D breast and in the experiment with U251 CNS were 30.1 µM, 79.1 µM and 31.9 µM, respectively.

Turning to `CSc1nc(-c2cccc(NC(=O)CCl)c2)c(C#N)c(=O)n1C`, the GI50 with ACHN renal is 1.03 µM; with COLO 205 colon, 1.7 µM; with HCT-15 colon, 1.27 µM; in the experiment on M14 melanoma, 1.78 µM; in the experiment with MALME-3M melanoma, 1.17 µM; with RPMI-8226 leukemia, 1.75 µM. The results for the GI50 in the experiment on SW-620 colon, with T-47D breast and in the experiment on U251 CNS were 1.51 µM, 1.71 µM and 1.35 µM, respectively. Also, the TGI was found to be 2.22 µM with ACHN renal; 3.94 µM in the experiment on COLO 205 colon; 2.88 µM in the experiment with HCT-15 colon; 5.61 µM in the experiment on M14 melanoma; 2.66 µM in the experiment on MALME-3M melanoma; 4.88 µM with RPMI-8226 leukemia. Besides, the TGI came to 3.44 µM in the experiment on SW-620 colon, 4.19 µM with T-47D breast and 3.07 µM with U251 CNS.

In the case of `NCCNc1ncnc2ccc(Cl)cc12`, the TGI with ACHN renal, with COLO 205 colon, in the experiment with HCT-15 colon, in the experiment on M14 melanoma, in the experiment with MALME-3M melanoma and with RPMI-8226 leukemia was > 100 µM in each case. The TGI in the experiment on SW-620 colon, in the experiment with T-47D breast and in the experiment on U251 CNS was > 100 µM each time.

For the origin of these results see PubChem BioAssay (NCI).
